Test results from US20030096823A1, “Method for the treatment of cardiotoxicity induced by antitumor compounds” (priority 2001, published 2003).

Tested on: heart (myocardial damage) of Crl:CD-1 (ICR) BR female mice
Experiment: cardiotoxicity in the Bertazzoli mouse model
Assay type: in vivo
Conditions: intravenous, expected
Experimental: Animals/group: 15 Crl:CD-1 (ICR) BR female mice, about 4 weeks old at the start of treatment, will be used.
Test and control articles and formulations: Epi and rmuAb will be dissolved in normal saline (saline) and distilled water for injection (water), respectively, at the requested concentrations; dex will be dissolved in M/6 sodium lactate at the requested concentration; control animals will receive the above vehicles alone.
Dose levels and justification: The doses of 5 mg/kg/day for epi and 50 mg/kg/day for dex (epi/dex ratio: 1:10) are selected on the basis of the results of previous cardiotoxicity studies in mice. […] The two doses of rmuAb will be decided on the basis of the results of two preliminary studies performed to assess its toxicity and cardiotoxic potential in the above strain of mice.
Administration route: intravenous, via a tail vein, for epi, dex and rmuAb.
Study duration and treatment schedule: Twice a week at weeks 1, 2, 5, 6, and 7 for epi and dex; twice a week for 7 weeks for rmuAb. Dex will be given 30 minutes before epi. […]
Clinical observations and post-mortem examinations: Mortality, clinical signs and general condition will be recorded daily and body weight weekly. […] Cardiomyopathy will be evaluated by scoring the severity and extent of the myocardial lesions according to a qualitative/quantitative score. […]

C[C@@H](CN1CC(=O)NC(=O)C1)N1CC(=O)NC(=O)C1 [dex, dexrazoxane]
effect on myocardial damage produced by epi (50 mg/kg/day dex, 30 minutes before epi): significantly reduce the myocardial damage

COc1cccc2c1C(=O)c1c(O)c3c(c(O)c1C2=O)C[C@@](O)(C(=O)CO)C[C@@H]3O[C@H]1C[C@H](N)[C@@H](O)[C@H](C)O1 [epi, epirubicin]
cardiotoxicity induced (5 mg/kg/day epi): moderate/marked cardiotoxicity
